From patent publication US20090018111A1, “Novel Antimicrobial Medicament” (priority 2004, published 2009)
Like-named read-outs stand apart in the source and are kept apart here.

Assays:
S. epidermidis IAM1296 = assay: Sensitivity test (agar dilution); type: cell-based, Staphylococcus epidermidis; details: Staphylococcus epidermidis, read-out: MIC
Outline: (§1)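 Strains were grown overnight at 37° C, brought to about 10^6 CFU/ml in gelatin-buffered saline, and ~5 μl inoculated onto MHA plates carrying two-fold dilution series of the test drug alone or in combination, following the Japan Chemotherapeutic Society agar dilution standard.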

E. faecalis ATCC19433 = assay: Sensitivity test (agar dilution); type: cell-based, Enterococcus faecalis; details: Enterococcus faecalis, read-out: MIC
Outline: as §1

E. coli ML1410 RP4 = assay: microbe, parasite or virus in culture; type: cell-based, Escherichia coli; details: Escherichia coli
Outline: as §1

P. mirabiris GN2425 = assay: Sensitivity test (agar dilution); type: cell-based, Proteus mirabilis; details: Proteus mirabilis, read-out: MIC
Outline: as §1

S. marcescens GN6473 = assay: Sensitivity test (agar dilution); type: cell-based, Serratia marcescens; details: Serratia marcescens, read-out: MIC
Outline: as §1

S. marcescens X 100 = assay: Sensitivity test (agar dilution); type: cell-based, Serratia marcescens; details: Serratia marcescens, read-out: MIC
Outline: as §1

E. cloacae GN7471 = assay: Sensitivity test (agar dilution); type: cell-based, Enterobacter cloacae; details: Enterobacter cloacae, read-out: MIC
Outline: as §1

C. freundii GN346 = assay: Sensitivity test (agar dilution); type: cell-based, Citrobacter freundii; details: Citrobacter freundii, read-out: MIC
Outline: as §1

P. aeruginosa IFO3451 = assay: Sensitivity test (agar dilution); type: cell-based, Pseudomonas aeruginosa; details: Pseudomonas aeruginosa, read-out: MIC
Outline: as §1

P. aeruginosa TL-2666 = assay: Sensitivity test (agar dilution); type: cell-based, Pseudomonas aeruginosa; details: Pseudomonas aeruginosa, read-out: MIC
Outline: as §1

P. aeruginosa TL-2667 = assay: Sensitivity test (agar dilution); type: cell-based, Pseudomonas aeruginosa; details: Pseudomonas aeruginosa, read-out: MIC
Outline: as §1

M. catarrhalis ATCC25238 = assay: Sensitivity test (agar dilution); type: cell-based, Moraxella catarrhalis; details: Moraxella catarrhalis, read-out: MIC
Outline: as §1

M. catarrhalis ATCC8176 = assay: Sensitivity test (agar dilution); type: cell-based, Moraxella catarrhalis; details: Moraxella catarrhalis, read-out: MIC
Outline: as §1

C[C@@H](O)[C@H]1C(=O)N2C(C(=O)O)=C(S[C@@H]3CN[C@H](C(=O)N(C)C)C3)[C@H](C)[C@H]12 [MEPM, meropenem]
MIC (S. epidermidis IAM1296; IAM1296, Concomitant (MEPM:SM = 1:1)): ≤ 0.016 µg/mL | MIC (S. epidermidis IAM1296; IAM1296, Concomitant (MEPM:SM = 1:2)): ≤ 0.016 µg/mL | MIC (S. epidermidis IAM1296; IAM1296, Concomitant (MEPM:SM = 1:4)): ≤ 0.016 µg/mL | MIC (S. epidermidis IAM1296; IAM1296, Concomitant drug (MEPM:SM = 2:1)): 0.063 µg/mL | MIC (S. epidermidis IAM1296; IAM1296, alone): 1 µg/mL | MIC (E. faecalis ATCC19433; ATCC19433, Concomitant (MEPM:SM = 1:1)): 1 µg/mL | MIC (E. faecalis ATCC19433; ATCC19433, Concomitant (MEPM:SM = 1:2)): 0.5 µg/mL | MIC (E. faecalis ATCC19433; ATCC19433, Concomitant (MEPM:SM = 1:4)): 0.25 µg/mL | MIC (E. faecalis ATCC19433; ATCC19433, Concomitant drug (MEPM:SM = 2:1)): 1 µg/mL | MIC (E. faecalis ATCC19433; ATCC19433, alone): 4 µg/mL | MIC (E. coli ML1410 RP4; ML1410RP4, Concomitant (MEPM:SM = 1:1)): ≤ 0.016 µg/mL | MIC (E. coli ML1410 RP4; ML1410RP4, Concomitant (MEPM:SM = 1:2)): ≤ 0.016 µg/mL | MIC (E. coli ML1410 RP4; ML1410RP4, Concomitant (MEPM:SM = 1:4)): ≤ 0.016 µg/mL | MIC (E. coli ML1410 RP4; ML1410RP4, Concomitant drug (MEPM:SM = 2:1)): ≤ 0.016 µg/mL | MIC (E. coli ML1410 RP4; ML1410RP4, alone): 0.031 µg/mL | MIC (P. mirabiris GN2425; GN2425, Concomitant (MEPM:SM = 1:1)): ≤ 0.016 µg/mL | MIC (P. mirabiris GN2425; GN2425, Concomitant (MEPM:SM = 1:2)): 0.031 µg/mL | MIC (P. mirabiris GN2425; GN2425, Concomitant (MEPM:SM = 1:4)): ≤ 0.016 µg/mL | MIC (P. mirabiris GN2425; GN2425, Concomitant drug (MEPM:SM = 2:1)): 0.031 µg/mL | MIC (P. mirabiris GN2425; GN2425, alone): 0.063 µg/mL | MIC (S. marcescens GN6473; GN6473, Concomitant (MEPM:SM = 1:1)): 0.031 µg/mL | MIC (S. marcescens GN6473; GN6473, Concomitant (MEPM:SM = 1:2)): 0.031 µg/mL | MIC (S. marcescens GN6473; GN6473, Concomitant (MEPM:SM = 1:4)): 0.031 µg/mL | MIC (S. marcescens GN6473; GN6473, Concomitant drug (MEPM:SM = 2:1)): 0.031 µg/mL | MIC (S. marcescens GN6473; GN6473, alone): 0.063 µg/mL | MIC (S. marcescens X 100; X100, Concomitant (MEPM:SM = 1:1)): ≤ 0.016 µg/mL | MIC (S. marcescens X 100; X100, Concomitant (MEPM:SM = 1:2)): ≤ 0.016 µg/mL | MIC (S. marcescens X 100; X100, Concomitant (MEPM:SM = 1:4)): ≤ 0.016 µg/mL | MIC (S. marcescens X 100; X100, Concomitant drug (MEPM:SM = 2:1)): 0.031 µg/mL | MIC (S. marcescens X 100; X100, alone): 0.031 µg/mL | MIC (E. cloacae GN7471; GN7471, Concomitant (MEPM:SM = 1:1)): 0.031 µg/mL | MIC (E. cloacae GN7471; GN7471, Concomitant (MEPM:SM = 1:2)): 0.031 µg/mL | MIC (E. cloacae GN7471; GN7471, Concomitant (MEPM:SM = 1:4)): 0.031 µg/mL | MIC (E. cloacae GN7471; GN7471, Concomitant drug (MEPM:SM = 2:1)): 0.031 µg/mL | MIC (E. cloacae GN7471; GN7471, alone): 0.063 µg/mL | MIC (C. freundii GN346; GN346, Concomitant (MEPM:SM = 1:1)): 0.031 µg/mL | MIC (C. freundii GN346; GN346, Concomitant (MEPM:SM = 1:2)): 0.031 µg/mL | MIC (C. freundii GN346; GN346, Concomitant (MEPM:SM = 1:4)): 0.031 µg/mL | MIC (C. freundii GN346; GN346, Concomitant drug (MEPM:SM = 2:1)): 0.031 µg/mL | MIC (C. freundii GN346; GN346, alone): 0.063 µg/mL | MIC (P. aeruginosa IFO3451; IFO3451, Concomitant (MEPM:SM = 1:1)): 0.5 µg/mL | MIC (P. aeruginosa IFO3451; IFO3451, Concomitant (MEPM:SM = 1:2)): 0.5 µg/mL | MIC (P. aeruginosa IFO3451; IFO3451, Concomitant (MEPM:SM = 1:4)): 0.5 µg/mL | MIC (P. aeruginosa IFO3451; IFO3451, Concomitant drug (MEPM:SM = 2:1)): 0.5 µg/mL | MIC (P. aeruginosa IFO3451; IFO3451, alone): 0.5 µg/mL | MIC (P. aeruginosa TL-2666; TL2666, Concomitant (MEPM:SM = 1:1)): 1 µg/mL | MIC (P. aeruginosa TL-2666; TL2666, Concomitant (MEPM:SM = 1:2)): 1 µg/mL | MIC (P. aeruginosa TL-2666; TL2666, Concomitant (MEPM:SM = 1:4)): 1 µg/mL | MIC (P. aeruginosa TL-2666; TL2666, Concomitant drug (MEPM:SM = 2:1)): 1 µg/mL | MIC (P. aeruginosa TL-2666; TL2666, alone): 1 µg/mL | MIC (P. aeruginosa TL-2667; TL2667, Concomitant (MEPM:SM = 1:1)): 4 µg/mL | MIC (P. aeruginosa TL-2667; TL2667, Concomitant (MEPM:SM = 1:2)): 2 µg/mL | MIC (P. aeruginosa TL-2667; TL2667, Concomitant (MEPM:SM = 1:4)): 2 µg/mL | MIC (P. aeruginosa TL-2667; TL2667, Concomitant drug (MEPM:SM = 2:1)): 4 µg/mL | MIC (P. aeruginosa TL-2667; TL2667, alone): 4 µg/mL | MIC (M. catarrhalis ATCC25238; ATCC25238, Concomitant (MEPM:SM = 1:1)): ≤ 0.016 µg/mL | MIC (M. catarrhalis ATCC25238; ATCC25238, Concomitant (MEPM:SM = 1:2)): ≤ 0.016 µg/mL | MIC (M. catarrhalis ATCC25238; ATCC25238, Concomitant (MEPM:SM = 1:4)): ≤ 0.016 µg/mL | MIC (M. catarrhalis ATCC25238; ATCC25238, Concomitant drug (MEPM:SM = 2:1)): ≤ 0.016 µg/mL | MIC (M. catarrhalis ATCC25238; ATCC25238, alone): ≤ 0.016 µg/mL | MIC (M. catarrhalis ATCC8176; ATCC8176, Concomitant (MEPM:SM = 1:1)): ≤ 0.016 µg/mL | MIC (M. catarrhalis ATCC8176; ATCC8176, Concomitant (MEPM:SM = 1:2)): ≤ 0.016 µg/mL | MIC (M. catarrhalis ATCC8176; ATCC8176, Concomitant (MEPM:SM = 1:4)): ≤ 0.016 µg/mL | MIC (M. catarrhalis ATCC8176; ATCC8176, Concomitant drug (MEPM:SM = 2:1)): ≤ 0.016 µg/mL | MIC (M. catarrhalis ATCC8176; ATCC8176, alone): ≤ 0.016 µg/mL
